Reference: PMC9397875 (PLoS ONE, 2022)

Columns and labels:
[1] = tested on: MCF-12A non-tumorigenic breast epithelial cell line; assay: Resazurin cytotoxicity assay, MCF-12A; type: cell-based; conditions: Homo sapiens, MCF-12A cells, 96 hours treatment, read-out: MCF-12A IC50 (μM) ± SD
Experimental: (§1) Cytotoxicity and the IC50 of the synthetic compounds were determined using the resazurin assay, [12, 13]. The cancer cells MCF-7 hormone receptor positive breast cancer [estrogen receptor (ER)^+, progesterone receptor (PR)^+, human epidermal growth factor-2 (HER-2)^-; ATCC: HTB-22), HCC70 triple negative breast cancer (TNBC, ER^-, PR^-, HER-2^-; ATCC: CRL-2315) and a non-tumorigenic breast epithelial cell line MCF-12A (ATCC: CRL-10782), were seeded at a density of 5000 cells/well in a 96 well plate and were allowed to adhere overnight at 37°C in a 9% CO2 incubator. The cells were then treated with the synthetic compounds at a concentration range from 15.63–500.00 μM or with a vehicle control [0.2% (v/v) DMSO] for 96 hours at 37°C in a 9% CO2 incubator. Thereafter, […] of resazurin solution was added and the cells were incubated for 2–4 hours at 37°C in a 9% CO2 incubator. The fluorescence was then measured on a Spectramax spectrophotometer with excitation and emission wavelength set at 560 and 590 nm respectively. The experiment was done in technical triplicate and the data were analyzed using GraphPad Prism Inc, (USA) with half-maximal inhibitory concentration (IC50 values) determined by non-linear regression. Selectivity index values for the compounds were calculated as follows: (IC50 of compound against MCF12A cells)÷(IC50 of compound against breast cancer cells) where a SI > 1 is indicative of selective toxicity towards cancer cells vs non-cancerous cells.
(§2) The HCC70 (ATCC-CRL-2315) basal triple-negative breast cancer (TNBC) cell lines and MCF-7 luminal A cancer cell line (ATCC-HTB-22) were purchased from the American Type Culture Collection (ATCC, USA). The MCF-12A breast epithelial cell line (ATCC-CRL-10782) was a gift from Dr Anna-Mart Engelbrecht (Department of Physiology, Stellenbosch University, South Africa).

[2] = tested on: MCF-7 hormone receptor positive breast cancer cells; assay: Resazurin cytotoxicity assay, MCF-7; type: cell-based; conditions: for IC50: Homo sapiens, MCF7, MCF-7 cells, 96 hours treatment, resazurin, read-out: MCF-7 IC50 (μM) ± SD; for SI (selectivity index) for MCF-7: IC50 against MCF12A cells ÷ IC50 against MCF-7 cells
Experimental: as §1, §2

[3] = tested on: HCC70 triple negative breast cancer cells; assay: Resazurin cytotoxicity assay, HCC70; type: cell-based; conditions: for IC50: Homo sapiens, HCC70 cells, 96 hours treatment, resazurin, read-out: HCC70 IC50 (μM) ± SD; for SI (selectivity index) for HCC70: IC50 against MCF12A cells ÷ IC50 against HCC70 cells
Experimental: as §1, §2

leukemia cells (K562) = tested on: leukemia cells (K562); design: method as in ref 3, 19 = [3]; doi:10.1039/C2MD20172K; 3 Woods JR , Mo H , Bieberich AA , Alavanja T , Colby DA . Amino derivatives of the sesquiterpene lactone class of natural products as prodrugs . Med.Chem.Comm . 2013; 4 ( 1 ): 27 – 33 . doi: 10.1039 || [19]; 19 Unde NR , Hiremath SV , Kulkarni GH , Kelkar GR . Amino derivatives of sesquiterpenes lactone class of natural products prodrugs . Tetrahedron Lett . 1968; 9 : 4861 – 4862 .; conditions: antiproliferative; cited from earlier work
[4] = tested on: colorectal cancer cells (SW-620); design: method as in PMID 16766184; conditions: cytotoxicity; cited from earlier work
[5] = tested on: colon cancer cells (SW-620); design: method as in ref 3 = [3]; doi:10.1039/C2MD20172K; 3 Woods JR , Mo H , Bieberich AA , Alavanja T , Colby DA . Amino derivatives of the sesquiterpene lactone class of natural products as prodrugs . Med.Chem.Comm . 2013; 4 ( 1 ): 27 – 33 . doi: 10.1039; conditions: antiproliferative; cited from earlier work

SMILES	IC50 [1] [µM]	IC50 [2] [µM]	SI (selectivity index) for MCF-7 [2]	IC50 [3] [µM]	SI (selectivity index) for HCC70 [3]	GI50 (leukemia cells (K562)) [µM]	IC50 [4] [µM]	GI50 [5] [µM]
C=C1CC[C@@H]2C(=C)CC[C@H]3[C@@H](OC(=O)[C@H]3CN(CC)CC)[C@H]12 (relative stereo) [DHLC-2, (*3aS,6aR,9aR,9bS*)-3-[(diethylamino)methyl]decahydro-6,9-bis(methylene)azuleno[4,5-b]furan-2(3H)-one]	8.88 ± 1.1	0.07	SI = 126.86	1.48 ± 1.49	SI = 6.00			
CC[C@@]1(O)C(=O)OCc2c1cc1n(c2=O)Cc2cc3ccccc3nc2-1 [Camptothecin, reference compound]	104.2 ± 1.04	104 ± 9.92		83.2 ± 1.08				
C=C1CC[C@H]2C(=C)CC[C@H]3C(=C)C(=O)O[C@@H]3[C@@H]12 [DHLC, Dehydrocostus lactone, reference compound]	0.07 ± 0.07	24.7 ± 1.25		1.11 ± 1.31	SI = 0.06			
C=C1CC[C@@H]2C(=C)CC[C@H]3[C@@H](OC(=O)[C@H]3CN(C)C)[C@H]12 [DHLC-1, Guaia-4(15),10(14)-dien-12-oic acid, 13-(dimethylamino)-6-hydroxy-γ-lactone]	8.47 ± 1.42	0.07 ± 0.07	SI = 121	0.64 ± 1.47	SI = 13.23			
C=C1CC[C@@H]2C(=C)CC[C@H]3[C@@H](OC(=O)[C@H]3CNCC)[C@H]12 [DHLC-3, Guaia-4(15),10(14)-dien-12-oic acid, 13-(ethylamino)-6-hydroxy-γ-lactone]	188.2 ± 1.35		SI = 8.33	3.25 ± 1.36	SI = 57.91			
C=C1CC[C@@H]2C(=C)CC[C@H]3[C@@H](OC(=O)[C@H]3CNCCN)[C@H]12 [DHLC-4, 13-ethylenediamine dehydrocostus lactone]	147.7 ± 1.28	4.24 ± 1.29	SI = 34.83	2.71 ± 1.3	SI = 54.50			
C=C1C(=O)O[C@@H]2/C=C(\C)CC/C=C(\C)CC[C@@H]12 [costunolide]						14.5	7.8	7.8
